According to patent US9776963B2, “Small molecule CD4 mimetics and uses thereof” (priority 2008, dated 2017):
Values joined by “and” are separate entries in the source; they are usually repeats but may differ in a detail not shown here. Equal values may be shown once. Read-outs that look alike come from different tables or passages of the source.

Tests used:
[1] = target: T1, HIV-1 YU2 gp120 glycoprotein V430A (Human immunodeficiency virus type 1 group M subtype B, UniProt P35961, V417A); assay: biochemical; assay type: binding
T1 construct: (His)6 (C); made in house; host or cells: 293F cells

[2] = target: T2, HIV-1 YU2 gp120 glycoprotein D368A (Human immunodeficiency virus type 1 group M subtype B, UniProt P35961, D363A); assay: biochemical; assay type: binding
T2 construct: (His)6 (C); made in house; host or cells: 293F cells

[3] = target: T3, HIV-1 YU2 gp120 glycoprotein D368A/S375A (Human immunodeficiency virus type 1 group M subtype B, UniProt P35961, D363A/S370A); assay: biochemical; assay type: binding
T3 construct: (His)6 (C); made in house; host or cells: 293F cells

[4] = test system: recombinant HIV with the w.t. HIVYU2 envelope glycoproteins; assay: microbe, parasite or virus in culture; assay type: cell-based; details: for IC50: w.t. YU2 envelope glycoproteins; for inhibition of HIV infection of cells expressing CD4 and CCR5 (in words): specificity versus A-MLV control
[5] = test system: viruses with the S375W envelope glycoproteins; assay type: cell-based; details: Cf2Th-CCR5 cells
[6] = target: T4, w.t. HIV-1 YU2 gp120 glycoprotein (Human immunodeficiency virus type 1 group M subtype B, UniProt P35961); assay: biochemical; assay type: binding; details: for Kd: w.t. gp120, ITC, 25° C.
T4 construct: (His)6 (C); made in house; host or cells: 293F cells

[7] = test system: viruses with gp120 Glu 429 replaced with lysine; assay type: cell-based
[8] = test system: viruses with HXBc2 or KB9 Env gps
Excerpt: The envelope glycoproteins were derived from CCR5-using (R5) primary HIV isolates (YU2 and ADA), dual-tropic (R5×4) primary isolates (89.6 and KB9) and, as a control, the amphotropic murine leukemia virus (A-MLV).

[9] = test system: viruses with gp120 Glu 429 replaced with alanine; assay type: cell-based
[10] = target: T5, HIV-1 YU2 gp120 glycoprotein S375A (Human immunodeficiency virus type 1 group M subtype B, UniProt P35961, S370A); assay: biochemical; assay type: binding
T5 construct: (His)6 (C); made in house; host or cells: 293F cells

D368A mutant viruses = assay type: cell-based; details: D368A envelope, CD4-CCR5+ target cells
[11] = test system: recombinant HIV with the wild-type HIVYU2 envelope glycoproteins; assay type: cell-based; details: w.t. YU2 envelope
[12] = NBD-556 compared with NBD-557
HXBc2 gp120 = target: T6, HXBc2 gp120 (Human immunodeficiency virus type 1 group M subtype B, UniProt P04578); assay: Compound binding assay with [3H]-NBD-556, HXBc2 gp120; parameters: species or system HIV
T6 construct: (His)6 (C); made in house; host or cells: 293F cells

[13] = test system: viruses with the S375A change; assay type: cell-based; details: S375A envelope, compared with w.t.
[14] = Human immunodeficiency virus 1, Cf2Th-CD4/CCR5, Cf2Th-CD4/CCR5 cells

Row | Compound | inhibition of HIV infection of cells expressing CD4 and CCR5 (in words) [4] | enhancement of infection (in words) [5] | gp120 binding / affinity (in words) [6] | activation of infection (in words) [7] | virus activation (in words) [9] | enhancement of infectivity (in words) (D368A mutant viruses) | also measured
1 | CC1(C)CC(NC(=O)C(=O)Nc2ccc(Cl)c(F)c2)CC(C)(C)N1 [Compound II, N1-(4-Chloro-3-fluorophenyl)-N2-(2,2,6,6-tetramethylpiperidin-4-yl)oxalamide] | specifically inhibited HIVYU2 infection | did not activate the entry | highest affinity for gp120 | eliminated the activation of infection | significantly diminished | enhanced | Kd [1]: 1000 nM; Kd [2]: 720 nM; Kd [3]: 83 nM; IC50 ([4]; Cf2Th-CD4/CCR5 cells): 54 µM; IC50 [4, 14]: 90 µM; gp120 binding / affinity (in words) ([6]; listed as compound II): better gp120 binding than NBD-556 or NBD-557; Kd [6]: 800 nM; infection of CD4-CXCR4+ cells (in words) [8]: neither of these Env gps supported infection; Kd [10]: 140 nM; enhancement of HIV infection of CD4-CCR5+ cells (in words) [11]: most potent stimulation of HIV infection; enhancement of HIV infection of CD4-CCR5+ cells (in words) ([11]; listed as compound II): only compound II activated HIV infection
2 | CN1C(C)(C)CC(NC(=O)C(=O)Nc2ccc(Cl)c(F)c2)CC1(C)C [Compound III] | lowers the IC50, while maintaining specificity for HIV-1 |  | increases affinity for gp120 |  |  |  | IC50 [4, 14]: 75 µM; Kd [6]: 330 nM
3 | CC1(C)CC(NC(=O)C(=O)Nc2ccc(Br)cc2)CC(C)(C)N1 [NBD-557] |  | did not activate the entry | comparably to NBD-556 | eliminated the activation of infection | significantly diminished | not enhanced | enhancement of HIV infection of CD4-CCR5+ cells (in words) [11]: comparably to NBD-556
4 | CC1(C)CC(NC(=O)C(=O)Nc2ccc(Cl)c(Cl)c2)CC(C)(C)N1 [V] |  |  | better gp120 binding than NBD-556 or NBD-557 |  |  |  | 
5 | COC(=O)CCCn1cc(CN2C(C)(C)CC(NC(=O)C(=O)Nc3ccc(Cl)c(F)c3)CC2(C)C)nn1 [XVIII] | efficient and specific inhibition of HIV-1 |  |  |  |  |  | 
6 | CC1(C)CC(NC(=O)C(=O)Nc2ccc(Cl)c(F)c2)CC(C)(C)N1CCCO [XVII] | efficient and specific inhibition of HIV-1 |  |  |  |  |  | 
7 | CC1(C)CC(NC(=O)C(=O)Nc2ccc(Cl)c(F)c2)CC(C)(C)N1Cc1cn(CCCCCO)nn1 [XVI] | efficient and specific inhibition of HIV-1 |  |  |  |  |  | 
8 | NBD-556 |  | not enhanced |  | eliminated the activation of infection | less disruptive | enhanced | IC50 ([4]; Cf2Th-CD4/CCR5 cells): > 100 µM and 100 µM; solubility (in words) [12]: better solubility; infection of CD4-CXCR4+ cells (in words) [8]: did not enhance the entry; direct binding of 3H-labeled compound (in words) (HXBc2 gp120): only moderately; enhancement of infection (in words) [13]: greater enhancement
